Experimental data published in patent publication US20250082624A1, “METHODS OF TREATING COGNITIVE IMPAIRMENT” (NeuroTherapia, Inc., priority 2023, published 2025).

Assay: Two-compartment PK model of NTRX-07 plasma data (fit and dose predictions)
Set-up: species or system human
Conditions: compartmental PK model; for AUC24 h accumulation / Cmax accumulation: over 7 days
Description: Predictive compartmental PK analysis was utilized during dose escalation to predict PK outcomes at higher dose levels based on data from lower ones.
FIGS. 22A and 22B show the mathematical model with a simultaneous fit to data from all four cohorts (excluding fed subject data).
Compartmental analysis was performed using a two-compartment model with extravascular administration. Modeling was performed using a sophisticated MS Excel workbook developed by PharmaDirections.
FIGS. 24A-B show the mathematical model (heavy blue line) fit to the Cohort A data. The model will be further refined as data from additional cohorts become available. In particular, the terminal slope may change some, as the current data set is inadequate to define it. The model was built based on geometric mean data, but timepoint data were not used in cases where plasma concentrations were below the limit of quantitation for four or more of the six subjects.
Note that the model estimates are somewhat higher than those obtained from non-compartmental analysis since they consider the entire dosing interval as opposed to only the time points for which data are available.
These predictions are based on an assumption of linear PK across the specified dose range, and parameters could be underestimated if a saturable process limits bioavailability or is involved in drug clearance. Current data are insufficient to determine whether any saturable processes are involved in NTRX-007 uptake or clearance.
(§1) Compartmental analysis was performed based on a two-compartment model with extravascular administration. Modeling was performed using a sophisticated MS Excel workbook developed by PharmaDirections. Geometric mean data from Cohorts A and B were used to determine weighted least squares best fits for the PK parameters.
FIGS. 26A-26B show the mathematical model (heavy blue line) fit to the Cohort B data. The model was built based on geometric mean data, but timepoint data were not used in cases where plasma concentrations were below the limit of quantitation for four or more of the seven subjects.
as §1, with “A, B,” for “A”, “C” for “B”
The model predicts somewhat higher exposure for b.i.d. dosing.
as §1, with “A, B, C,” for “A”, “D” for “B”

With `CC1(Cc2ccccc2)COc2cc(C(=O)N3CCCCC3)ccc21` (stereo not shown) [NTRX-07, 3-benzyl-3-methyl-2,3-dihydrobenzofuran-6-carboxylic acid-piperidine amide] as the compound, how does the AUC24 h (40 mg SDD QD, Day 1) read?
The AUC24 h was 96 ng·h/mL.

What about the Cmax (40 mg SDD QD, Day 1) of the same compound?
The Cmax was 43.9 ng/mL.

And the Cmin (40 mg SDD QD, Day 1)?
The Cmin was 0.0 ng/mL.

What about the Tmax (40 mg SDD QD, Day 1) of the same compound?
The Tmax was 4.8 min.

What about the AUC24 h (40 mg SDD QD, Day 2) of the same compound?
Its AUC24 h is 100 ng·h/mL.

And the Cmax (40 mg SDD QD, Day 2)?
The Cmax was 44.3 ng/mL.

And the Cmin (40 mg SDD QD, Day 2)?
The Cmin was 0.4 ng/mL.

What about the Tmax (40 mg SDD QD, Day 2) of the same compound?
Its Tmax is 4.8 min.

What about the AUC24 h (40 mg SDD QD, Day 3) of the same compound?
Its AUC24 h is 101 ng·h/mL.

What about the Cmax (40 mg SDD QD, Day 3) of the same compound?
The Cmax was 44.4 ng/mL.

And the Cmin (40 mg SDD QD, Day 3)?
Its Cmin is 0.5 ng/mL.

And the Tmax (40 mg SDD QD, Day 3)?
Its Tmax is 4.8 min.

What about the AUC24 h (40 mg SDD QD, Day 4) of the same compound?
The AUC24 h was 101 ng·h/mL.

What about the Cmax (40 mg SDD QD, Day 4) of the same compound?
The Cmax was 44.4 ng/mL.

What about the Cmin (40 mg SDD QD, Day 4) of the same compound?
The Cmin was 0.5 ng/mL.

And the Tmax (40 mg SDD QD, Day 4)?
Its Tmax is 4.8 min.

What about the AUC24 h (40 mg SDD QD, Day 5) of the same compound?
Its AUC24 h is 101 ng·h/mL.

And the Cmax (40 mg SDD QD, Day 5)?
Its Cmax is 44.4 ng/mL.

What about the Cmin (40 mg SDD QD, Day 5) of the same compound?
The Cmin was 0.5 ng/mL.

What about the Tmax (40 mg SDD QD, Day 5) of the same compound?
The Tmax was 4.8 min.

What about the AUC24 h (40 mg SDD QD, Day 6) of the same compound?
Its AUC24 h is 101 ng·h/mL.

And the Cmax (40 mg SDD QD, Day 6)?
The Cmax was 44.4 ng/mL.

And the Cmin (40 mg SDD QD, Day 6)?
The Cmin was 0.5 ng/mL.

And the Tmax (40 mg SDD QD, Day 6)?
The Tmax was 4.8 min.

And the AUC24 h (40 mg SDD QD, Day 7)?
Its AUC24 h is 101 ng·h/mL.

What about the Cmax (40 mg SDD QD, Day 7) of the same compound?
The Cmax was 44.4 ng/mL.

And the Cmin (40 mg SDD QD, Day 7)?
Its Cmin is 0.5 ng/mL.

What about the Tmax (40 mg SDD QD, Day 7) of the same compound?
Its Tmax is 4.8 min.

What about the AUC24 h accumulation (40 mg SDD QD) of the same compound?
Its AUC24 h accumulation is 104%.

And the Cmax accumulation (40 mg SDD QD)?
The Cmax accumulation was 101%.

What about the AUC24 h (120 mg SDD QD, Day 1) of the same compound?
The AUC24 h was 210 ng·h/mL.

And the Cmax (120 mg SDD QD, Day 1)?
The Cmax was 74.6 ng/mL.

And the Tmax (120 mg SDD QD, Day 1)?
Its Tmax is 37.8 min.

And the AUC24 h (120 mg SDD QD, Day 2)?
The AUC24 h was 227 ng·h/mL.

What about the Cmax (120 mg SDD QD, Day 2) of the same compound?
The Cmax was 76.1 ng/mL.

What about the Cmin (120 mg SDD QD, Day 2) of the same compound?
Its Cmin is 1.5 ng/mL.

And the Tmax (120 mg SDD QD, Day 2)?
The Tmax was 37.8 min.

What about the AUC24 h (120 mg SDD QD, Day 3) of the same compound?
The AUC24 h was 230 ng·h/mL.

What about the Cmax (120 mg SDD QD, Day 3) of the same compound?
Its Cmax is 76.3 ng/mL.

What about the Cmin (120 mg SDD QD, Day 3) of the same compound?
Its Cmin is 1.8 ng/mL.

What about the Tmax (120 mg SDD QD, Day 3) of the same compound?
The Tmax was 37.8 min.

And the AUC24 h (120 mg SDD QD, Day 4)?
Its AUC24 h is 231 ng·h/mL.

What about the Cmax (120 mg SDD QD, Day 4) of the same compound?
Its Cmax is 76.4 ng/mL.

What about the Cmin (120 mg SDD QD, Day 4) of the same compound?
Its Cmin is 1.8 ng/mL.

And the Tmax (120 mg SDD QD, Day 4)?
The Tmax was 37.8 min.

What about the AUC24 h (120 mg SDD QD, Day 5) of the same compound?
Its AUC24 h is 231 ng·h/mL.

What about the Cmax (120 mg SDD QD, Day 5) of the same compound?
The Cmax was 76.4 ng/mL.

And the Cmin (120 mg SDD QD, Day 5)?
The Cmin was 1.8 ng/mL.

And the Tmax (120 mg SDD QD, Day 5)?
The Tmax was 37.8 min.

What about the AUC24 h (120 mg SDD QD, Day 6) of the same compound?
Its AUC24 h is 231 ng·h/mL.

And the Cmax (120 mg SDD QD, Day 6)?
The Cmax was 76.4 ng/mL.

And the Cmin (120 mg SDD QD, Day 6)?
The Cmin was 1.8 ng/mL.

And the Tmax (120 mg SDD QD, Day 6)?
Its Tmax is 37.8 min.

And the AUC24 h (120 mg SDD QD, Day 7)?
Its AUC24 h is 231 ng·h/mL.

What about the Cmax (120 mg SDD QD, Day 7) of the same compound?
The Cmax was 76.4 ng/mL.

What about the Cmin (120 mg SDD QD, Day 7) of the same compound?
The Cmin was 1.8 ng/mL.

What about the Tmax (120 mg SDD QD, Day 7) of the same compound?
The Tmax was 37.8 min.

And the AUC24 h accumulation (120 mg SDD QD)?
The AUC24 h accumulation was 110%.

What about the Cmax accumulation (120 mg SDD QD) of the same compound?
Its Cmax accumulation is 102%.

And the AUC24 h (360 mg SDD QD, Day 1)?
The AUC24 h was 559 ng·h/mL.

What about the Cmax (360 mg SDD QD, Day 1) of the same compound?
Its Cmax is 162.0 ng/mL.

And the Tmax (360 mg SDD QD, Day 1)?
The Tmax was 47.4 min.

And the AUC24 h (360 mg SDD QD, Day 2)?
Its AUC24 h is 616 ng·h/mL.

And the Cmax (360 mg SDD QD, Day 2)?
Its Cmax is 166.4 ng/mL.

And the Cmin (360 mg SDD QD, Day 2)?
The Cmin was 4.7 ng/mL.

And the Tmax (360 mg SDD QD, Day 2)?
Its Tmax is 47.4 min.

What about the AUC24 h (360 mg SDD QD, Day 3) of the same compound?
Its AUC24 h is 628 ng·h/mL.

What about the Cmax (360 mg SDD QD, Day 3) of the same compound?
Its Cmax is 167.4 ng/mL.

And the Cmin (360 mg SDD QD, Day 3)?
Its Cmin is 5.4 ng/mL.

And the Tmax (360 mg SDD QD, Day 3)?
The Tmax was 47.4 min.

And the AUC24 h (360 mg SDD QD, Day 4)?
Its AUC24 h is 631 ng·h/mL.

And the Cmax (360 mg SDD QD, Day 4)?
The Cmax was 167.6 ng/mL.

What about the Cmin (360 mg SDD QD, Day 4) of the same compound?
Its Cmin is 5.7 ng/mL.

What about the Tmax (360 mg SDD QD, Day 4) of the same compound?
Its Tmax is 47.4 min.

What about the AUC24 h (360 mg SDD QD, Day 5) of the same compound?
The AUC24 h was 631 ng·h/mL.

What about the Cmax (360 mg SDD QD, Day 5) of the same compound?
The Cmax was 167.6 ng/mL.

And the Cmin (360 mg SDD QD, Day 5)?
The Cmin was 5.7 ng/mL.

What about the Tmax (360 mg SDD QD, Day 5) of the same compound?
The Tmax was 47.4 min.

What about the AUC24 h (360 mg SDD QD, Day 6) of the same compound?
Its AUC24 h is 631 ng·h/mL.

What about the Cmax (360 mg SDD QD, Day 6) of the same compound?
The Cmax was 167.6 ng/mL.

And the Cmin (360 mg SDD QD, Day 6)?
Its Cmin is 5.7 ng/mL.

And the Tmax (360 mg SDD QD, Day 6)?
Its Tmax is 47.4 min.

And the AUC24 h (360 mg SDD QD, Day 7)?
Its AUC24 h is 631 ng·h/mL.

And the Cmax (360 mg SDD QD, Day 7)?
Its Cmax is 167.6 ng/mL.

And the Cmin (360 mg SDD QD, Day 7)?
The Cmin was 5.7 ng/mL.

And the Tmax (360 mg SDD QD, Day 7)?
The Tmax was 47.4 min.

What about the AUC24 h accumulation (360 mg SDD QD) of the same compound?
The AUC24 h accumulation was 113%.

And the Cmax accumulation (360 mg SDD QD)?
Its Cmax accumulation is 103%.
